Measured values: patent US10800782B2, “Inhibitors of cellular metabolic processes” (Agios Pharmaceuticals, Inc., priority 2016, dated 2020)
pIC50: −log10 of the molar value.

Biological target: T1, MAT2A (Homo sapiens, UniProt P31153)
T1 construct: His6; made in house; host or cells: SF9 insect cells
Test: MAT2A biochemical assay (colorimetric inorganic phosphate detection, PiColorLock)
Conditions: recombinant His6-tagged MAT2A 1 μg/ml; 60 minutes preincubation at 25° C.; L-Met 80 μM, ATP 100 μM; 60 minutes reaction; read at 623 nm; read-out: MAT2A Inhibition Score
Summary of the method: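 His6-tagged human MAT2A (SF9-expressed, 1 μg/ml) converting L-Met and ATP to SAM in Tris pH 8.0, 50 mM KCl, 15 mM MgCl2, 300 uM EDTA, 0.005% BSA; 60 min at room temperature. Released phosphate detected colorimetrically with malachite green phosphomolybdate. Ten-point, three-fold compound dilution series.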

T1 sequence (P31153 whole entry): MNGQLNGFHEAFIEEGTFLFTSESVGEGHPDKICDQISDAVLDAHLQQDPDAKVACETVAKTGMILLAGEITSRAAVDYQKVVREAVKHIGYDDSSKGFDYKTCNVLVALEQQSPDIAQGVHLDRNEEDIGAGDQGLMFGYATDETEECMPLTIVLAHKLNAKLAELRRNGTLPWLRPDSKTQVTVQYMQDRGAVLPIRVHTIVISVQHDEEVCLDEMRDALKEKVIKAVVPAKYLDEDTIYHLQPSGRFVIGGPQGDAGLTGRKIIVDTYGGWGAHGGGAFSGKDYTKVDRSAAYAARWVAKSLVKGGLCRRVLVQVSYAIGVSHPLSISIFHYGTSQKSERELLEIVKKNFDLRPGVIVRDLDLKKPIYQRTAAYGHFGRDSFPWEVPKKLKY

Compound | pIC50
COc1ccc(-c2c(C)[nH]c3c(-c4ccccc4)c(-c4ccccc4)nn3c2=O)cn1 [Compound 333, 6-(6-methoxypyridin-3-yl)-5-methyl-2,3-diphenylpyrazolo[1,5-a]pyrimidin-7(4H)-one] | 6.00 to 7.00
O=C(NCc1cc[nH]n1)c1[nH]c2c(-c3ccccc3)c(-c3ccccc3)nn2c(=O)c1-c1ccc2ncccc2c1 [Compound 328, N-((1H-pyrazol-3-yl)methyl)-7-oxo-2,3-diphenyl-6-(quinolin-6-yl)-4,7-dihydropyrazolo[1,5-a]pyrimidine-5-carboxamide] | 5.00 to 6.00
COc1ccc(-c2c(Nc3ncnc(O)n3)[nH]c3c(-c4ccccc4)c(-c4ccccc4)nn3c2=O)cc1 [Compound 136, 5-((4-hydroxy-1,3,5-triazin-2-yl)amino)-6-(4-methoxyphenyl)-2,3-diphenylpyrazolo[1,5-a]pyrimidin-7(4H)-one] | > 7.00
CCNC(=O)c1nnc(Nc2[nH]c3c(-c4ccccc4)c(-c4ccccc4)nn3c(=O)c2-c2ccc3ncccc3c2)o1 [Compound 199, N-ethyl-5-((7-oxo-2,3-diphenyl-6-(quinolin-6-yl)-4,7-dihydropyrazolo[1,5-a]pyrimidin-5-yl)amino)-1,3,4-oxadiazole-2-carboxamide] | > 7.00
COc1ccc(-c2c(CN)[nH]c3c(-c4ccccc4)c(-c4ccccc4)nn3c2=O)cc1 [Compound 222, 5-(aminomethyl)-6-(4-methoxyphenyl)-2,3-diphenylpyrazolo[1,5-a]pyrimidin-7(4H)-one] | > 7.00
NCc1[nH]c2c(C3=CCCCC3)c(-c3ccccc3)nn2c(=O)c1-c1ccc2ncccc2c1 [Compound 233, 5-(aminomethyl)-3-(cyclohex-1-en-1-yl)-2-phenyl-6-(quinolin-6-yl)pyrazolo[1,5-a]pyrimidin-7(4H)-one] | > 7.00
COc1ccc(-c2c(O)n(C)c3c(-c4ccccc4)c(-c4ccccc4)nn3c2=O)cc1 [Compound 274, 5-hydroxy-6-(4-methoxyphenyl)-4-methyl-2,3-diphenylpyrazolo[1,5-a]pyrimidin-7(4H)-one] | > 7.00
COc1ccc(-c2c(NC3=NCCS3)[nH]c3c(-c4ccccc4)c(-c4ccccc4)nn3c2=O)cc1 [Compound 143, 5-((4,5-dihydrothiazol-2-yl)amino)-6-(4-methoxyphenyl)-2,3-diphenylpyrazolo[1,5-a]pyrimidin-7(4H)-one] | > 7.00
COc1ccc(-c2c(Nc3nc(OC)ns3)[nH]c3c(-c4ccccc4)c(-c4ccccc4)nn3c2=O)cc1 [Compound 148, 5-((3-methoxy-1,2,4-thiadiazol-5-yl)amino)-6-(4-methoxyphenyl)-2,3-diphenylpyrazolo[1,5-a]pyrimidin-7(4H)-one] | > 7.00
COc1ccc(-c2c(CNc3nc[nH]n3)[nH]c3c(-c4ccccc4)c(-c4ccccc4)nn3c2=O)cc1 [Compound 264, 5-(((1H-1,2,4-triazol-3-yl)amino)methyl)-6-(4-methoxyphenyl)-2,3-diphenylpyrazolo[1,5-a]pyrimidin-7(4H)-one] | > 7.00
O=c1c(-c2ccc3ncccc3c2)c(O)[nH]c2c(-c3ccccc3)c(-c3ccccc3)nn12 [Compound 275, 5-hydroxy-2,3-diphenyl-6-(quinolin-6-yl)pyrazolo[1,5-a]pyrimidin-7(4H)-one] | > 7.00
COc1ccc(-c2c(Nc3ccc(Cl)cn3)[nH]c3c(-c4ccccc4)c(-c4ccccc4)nn3c2=O)cc1 [Compound 106, 5-((5-chloropyridin-2-yl)amino)-6-(4-methoxyphenyl)-2,3-diphenylpyrazolo[1,5-a]pyrimidin-7(4H)-one] | > 7.00
Cc1[nH]c2c(N3CCCCC3)c(-c3ccccc3)nn2c(=O)c1N1CCOCC1 [Compound 302, 5-methyl-6-morpholino-2-phenyl-3-(piperidin-1-yl)pyrazolo[1,5-a]pyrimidin-7(4H)-one] | 6.00 to 7.00
Cc1[nH]c2c(N3CCCCC3)c(-c3ccccc3)nn2c(=O)c1-c1cccc(N)c1 [Compound 301, 6-(3-aminophenyl)-5-methyl-2-phenyl-3-(piperidin-1-yl)pyrazolo[1,5-a]pyrimidin-7(4H)-one] | 6.00 to 7.00
COc1ccc(-c2c(Nc3ccno3)[nH]c3c(-c4ccccc4)c(-c4ccccc4)nn3c2=O)cc1 [Compound 140, 5-(isoxazol-5-ylamino)-6-(4-methoxyphenyl)-2,3-diphenylpyrazolo[1,5-a]pyrimidin-7(4H)-one] | > 7.00
COc1ccc(-c2c(Nc3ccnc(OC)n3)[nH]c3c(-c4ccccc4)c(-c4ccccc4)nn3c2=O)cc1 [Compound 118, 6-(4-methoxyphenyl)-5-((2-methoxypyrimidin-4-yl)amino)-2,3-diphenylpyrazolo[1,5-a]pyrimidin-7(4H)-one] | > 7.00
Cc1[nH]c2c(-c3ccccc3)c(-c3ccccc3)nn2c(=O)c1-c1ccc2nnccc2c1 [Compound 335, 6-(cinnolin-6-yl)-5-methyl-2,3-diphenylpyrazolo[1,5-a]pyrimidin-7(4H)-one] | 6.00 to 7.00

The next lines start with the values.

pIC50 | Compound
> 7.00 | O=c1c(-c2ccc3ncccc3c2)c(Nc2ccn[nH]2)[nH]c2c(C3=CCCCC3)c(-c3ccccc3)nn12 [Compound 190, 5-((1H-pyrazol-5-yl)amino)-3-(cyclohex-1-en-1-yl)-2-phenyl-6-(quinolin-6-yl)pyrazolo[1,5-a]pyrimidin-7(4H)-one]
> 7.00 | COc1ccc(-c2c(NC(=O)CN)[nH]c3c(-c4ccccc4)c(-c4ccccc4)nn3c2=O)cc1 [Compound 283, 2-amino-N-(6-(4-methoxyphenyl)-7-oxo-2,3-diphenyl-4,7-dihydropyrazolo[1,5-a]pyrimidin-5-yl)acetamide]
> 7.00 | COc1ccc(-c2c(Nc3cnncn3)[nH]c3c(C4=CCCCC4)c(-c4ccccc4)nn3c2=O)cc1 [Compound 162, 5-((1,2,4-triazin-5-yl)amino)-3-(cyclohex-1-en-1-yl)-6-(4-methoxyphenyl)-2-phenylpyrazolo[1,5-a]pyrimidin-7(4H)-one]
5.00 to 6.00 | Cc1[nH]c2c(-c3ccccc3)c(-c3cccc(Cl)c3)nn2c(=O)c1-c1ccc2ncccc2c1 [Compound 346, 2-(3-chlorophenyl)-5-methyl-3-phenyl-6-(quinolin-6-yl)pyrazolo[1,5-a]pyrimidin-7(4H)-one]
6.00 to 7.00 | CCc1[nH]c2c(-c3ccccc3)c(-c3ccccc3)nn2c(=O)c1-c1ccc(OC)cc1 [Compound 312, 5-ethyl-6-(4-methoxyphenyl)-2,3-diphenylpyrazolo[1,5-a]pyrimidin-7(4H)-one]
> 7.00 | CCOC(=O)n1ccc(Nc2[nH]c3c(-c4ccccc4)c(-c4ccccc4)nn3c(=O)c2-c2ccc(OC)cc2)n1 [Compound 287, ethyl 3-((6-(4-methoxyphenyl)-7-oxo-2,3-diphenyl-4,7-dihydropyrazolo[1,5-a]pyrimidin-5-yl)amino)-1H-pyrazole-1-carboxylate]
> 7.00 | COc1ccc(-c2c(Nc3cnc(C#N)cn3)[nH]c3c(C4=CCCCC4)c(-c4ccccc4)nn3c2=O)cc1 [Compound 159, 5-(3-cyclohexenyl-6-(4-methoxyphenyl)-7-oxo-2-phenyl-4,7-dihydropyrazolo[1,5-a]pyrimidin-5-ylamino)pyrazine-2-carbonitrile]
> 7.00 | COc1ccc(-c2c(Nc3nccnn3)[nH]c3c(C4=CCCCC4)c(-c4ccccc4)nn3c2=O)cc1 [Compound 161, 5-((1,2,4-triazin-3-yl)amino)-3-(cyclohex-1-en-1-yl)-6-(4-methoxyphenyl)-2-phenylpyrazolo[1,5-a]pyrimidin-7(4H)-one]
> 7.00 | COc1ccc(-c2c(Nc3cn[nH]n3)[nH]c3c(-c4ccccc4)c(-c4ccccc4)nn3c2=O)cc1 [Compound 185, 5-((2H-1,2,3-triazol-4-yl)amino)-6-(4-methoxyphenyl)-2,3-diphenylpyrazolo[1,5-a]pyrimidin-7(4H)-one]
> 7.00 | COc1ccc(-c2c(Nc3nccs3)[nH]c3c(-c4ccccc4)c(-c4ccccc4)nn3c2=O)cc1 [Compound 137, 6-(4-methoxyphenyl)-2,3-diphenyl-5-(thiazol-2-ylamino)pyrazolo[1,5-a]pyrimidin-7(4H)-one]
6.00 to 7.00 | O=c1c(-c2ccc3ncccc3c2)c(CO)[nH]c2c(-c3ccccc3)c(-c3ccccc3)nn12 [Compound 319, 5-(hydroxymethyl)-2,3-diphenyl-6-(quinolin-6-yl)pyrazolo[1,5-a]pyrimidin-7(4H)-one]
6.00 to 7.00 | O=c1c(-c2ccc3ncccc3c2)c(Cc2ncn[nH]2)[nH]c2c(-c3ccccc3)c(-c3ccccc3)nn12 [Compound 321, 5-((1H-1,2,4-triazol-5-yl)methyl)-2,3-diphenyl-6-(quinolin-6-yl)pyrazolo[1,5-a]pyrimidin-7(4H)-one]
> 7.00 | NCc1[nH]c2c(C3=CCCCC3)c(-c3ccccc3)nn2c(=O)c1-c1ccc2nccnc2c1 [Compound 234, 5-(aminomethyl)-3-(cyclohex-1-en-1-yl)-2-phenyl-6-(quinoxalin-6-yl)pyrazolo[1,5-a]pyrimidin-7(4H)-one]
> 7.00 | COc1ccc(-c2c(Nc3cnoc3)[nH]c3c(-c4ccccc4)c(-c4ccccc4)nn3c2=O)cc1 [Compound 139, 5-(isoxazol-4-ylamino)-6-(4-methoxyphenyl)-2,3-diphenylpyrazolo[1,5-a]pyrimidin-7(4H)-one]
> 7.00 | COc1ccc(-c2c(Nc3nnc(O)s3)[nH]c3c(-c4ccccc4)c(-c4ccccc4)nn3c2=O)cc1 [Compound 146, 5-((5-hydroxy-1,3,4-thiadiazol-2-yl)amino)-6-(4-methoxyphenyl)-2,3-diphenylpyrazolo[1,5-a]pyrimidin-7(4H)-one]
6.00 to 7.00 | COc1ccc(-c2c(Nc3ccccc3)[nH]c3c(-c4ccccc4)c(-c4ccccc4)nn3c2=O)cc1 [Compound 356, 6-(4-methoxyphenyl)-2,3-diphenyl-5-(phenylamino)pyrazolo[1,5-a]pyrimidin-7(4H)-one]
